Here are results for 34 compounds from patent publication US20090111801A1, “SUBSTITUTED PYRAZINONE DERIVATIVES FOR USE AS A MEDICINE” (Janssen Pharmaceutica N.V., priority 2006, published 2009).

Structures are written as SMILES.

In one test the target is T1, hα2A receptor (Homo sapiens, UniProt P08913).
T1 construct: expressed in transfected cells; host or cells: CHO cells, stably transfected; membrane preparation
T1 sequence (P08913 1-465): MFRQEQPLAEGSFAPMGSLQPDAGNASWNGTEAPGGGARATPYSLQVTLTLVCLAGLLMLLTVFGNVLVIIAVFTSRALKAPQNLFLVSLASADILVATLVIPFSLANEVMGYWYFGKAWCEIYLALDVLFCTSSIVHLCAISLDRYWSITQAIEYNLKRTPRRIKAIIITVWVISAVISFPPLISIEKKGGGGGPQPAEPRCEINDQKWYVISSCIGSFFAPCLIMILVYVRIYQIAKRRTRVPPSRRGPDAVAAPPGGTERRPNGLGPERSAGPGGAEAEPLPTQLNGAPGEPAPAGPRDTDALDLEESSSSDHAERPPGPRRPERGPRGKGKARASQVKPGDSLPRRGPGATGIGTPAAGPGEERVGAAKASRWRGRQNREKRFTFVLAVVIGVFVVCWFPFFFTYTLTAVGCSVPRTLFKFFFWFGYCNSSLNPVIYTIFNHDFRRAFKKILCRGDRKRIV
Put plainly: Radioligand binding experiment for α2A-adrenoceptor ([3H]raulwolscine, CHO cell membranes). Particulars: [3H]raulwolscine binding; for IC50: read-out: h-α2A pIC50 (converted).

The next test concerns the target T2, 5HT-Transporter (Homo sapiens, UniProt P31645).
T2 construct: Human platelet membranes (Oceanix Biosciences Corporation, Hanover, Md., USA) were thawed; tissue Oceanix Biosciences Corporation, Hanover, Md., USA; host or cells: human platelet membranes
Put plainly: Binding experiment for the 5HT-transporter ([3H]paroxetine, human platelet membranes). Particulars: [3H]paroxetine 0.5 nM; for IC50: read-out: h-5HTT pIC50 (converted). Put shortly:
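Competition binding of [3H]paroxetine to human platelet membranes in Tris-HCl 50 mM, 120 mM NaCl, 5 mM KCl, with filtration and scintillation counting.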

Another test addresses T3, hα2C receptor (Homo sapiens, UniProt P18825).
T3 construct: expressed in transfected cells; host or cells: CHO cells, stably transfected; membrane preparation
T3 sequence (P18825 1-462): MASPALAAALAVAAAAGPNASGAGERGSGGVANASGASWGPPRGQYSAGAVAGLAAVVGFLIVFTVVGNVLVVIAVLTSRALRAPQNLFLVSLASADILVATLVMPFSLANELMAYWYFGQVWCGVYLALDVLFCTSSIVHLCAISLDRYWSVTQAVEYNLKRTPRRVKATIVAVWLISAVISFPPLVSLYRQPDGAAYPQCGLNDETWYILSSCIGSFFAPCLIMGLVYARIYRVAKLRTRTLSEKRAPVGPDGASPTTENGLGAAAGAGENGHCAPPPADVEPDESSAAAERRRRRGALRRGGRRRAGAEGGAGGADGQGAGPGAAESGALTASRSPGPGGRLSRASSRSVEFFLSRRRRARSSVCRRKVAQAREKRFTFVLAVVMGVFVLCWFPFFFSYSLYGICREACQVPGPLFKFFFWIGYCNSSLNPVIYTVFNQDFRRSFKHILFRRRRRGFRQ
Briefly: Radioligand binding experiment for α2C-adrenoceptor ([3H]raulwolscine, CHO cell membranes). As to conditions: [3H]raulwolscine binding; for IC50: read-out: h-α2C pIC50 (converted).

T2 sequence (P31645 whole entry): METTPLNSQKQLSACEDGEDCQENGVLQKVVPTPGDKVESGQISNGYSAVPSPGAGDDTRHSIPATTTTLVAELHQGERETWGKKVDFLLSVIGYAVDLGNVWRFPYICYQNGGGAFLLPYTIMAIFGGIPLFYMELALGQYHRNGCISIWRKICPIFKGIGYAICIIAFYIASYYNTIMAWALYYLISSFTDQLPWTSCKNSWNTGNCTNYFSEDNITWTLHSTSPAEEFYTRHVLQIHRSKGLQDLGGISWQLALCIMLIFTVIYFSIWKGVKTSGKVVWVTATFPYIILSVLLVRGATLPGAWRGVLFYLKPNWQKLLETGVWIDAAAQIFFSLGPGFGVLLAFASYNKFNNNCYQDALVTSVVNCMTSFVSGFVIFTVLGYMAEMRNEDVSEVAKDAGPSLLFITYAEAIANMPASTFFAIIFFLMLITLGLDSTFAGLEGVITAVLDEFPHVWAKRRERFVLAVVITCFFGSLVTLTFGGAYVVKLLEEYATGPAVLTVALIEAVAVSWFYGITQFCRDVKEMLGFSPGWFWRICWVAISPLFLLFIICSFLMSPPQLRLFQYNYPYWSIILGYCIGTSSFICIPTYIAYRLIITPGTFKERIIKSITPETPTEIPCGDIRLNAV

For the compound `C/C(=C\c1ccccc1)CN1CCC(N(C)c2nccn(Cc3ccc(CN)cc3)c2=O)CC1` [15-1], the IC50 at hα2A receptor was 25.1 nM; on 5HT-Transporter, 501 nM; at hα2C receptor, 10 nM.
The matching figures for `C/C(=C\c1ccccc1)CN1CCC(Nc2nccn(-c3ccc(CNCCN4CCOCC4)cc3)c2=O)CC1` [1-150]: 100 nM, 794 nM and 3.98 nM.
`CC(=O)N1CCN(C(=O)Cn2ccnc(NC3CCN(C/C(C)=C/c4ccccc4)CC3)c2=O)CC1` [2-22]: the IC50 is 126 nM at hα2A receptor, more than 10000 nM at 5HT-Transporter and 25.1 nM at hα2C receptor.
On the same counts, the results for `C/C(=C\c1ccccc1)CN1CCC(Nc2nccn(-c3ccc(C(=O)NC4CCN(Cc5ccccc5)CC4)cc3)c2=O)CC1` [1-129] are 63.1 nM, 501 nM and 25.1 nM.
For the compound `COc1ccc(NC(=O)Cn2ccnc(NC3CCN(C/C(C)=C/c4ccccc4)CC3)c2=O)cc1` [1-63], the IC50 was 100 nM at hα2A receptor, 631 nM at 5HT-Transporter and 12.6 nM at hα2C receptor.
On to `COCCN(C)Cc1ccc(-n2ccnc(NC3CCN(C/C(C)=C/c4ccccc4)CC3)c2=O)cc1` [1-26], for which the “h-α2A pIC50” value on hα2A receptor is reported as 7.2. The “h-5HTT pIC50” value at 5HT-Transporter amounted to 5.8. The “h-α2C pIC50” value at hα2C receptor turned out to be 8.7.
For the compound `C/C(=C\c1ccccc1)CN1CCC(Nc2nccn(-c3ccc(NC(=O)Nc4ccc(F)cc4)cc3)c2=O)CC1` [1-120], the IC50 at hα2A receptor was 200 nM; on 5HT-Transporter, 126 nM; on hα2C receptor it was 25.1 nM.
In the case of `C/C(=C\c1ccccc1)CN1CCC(Nc2nccn(-c3ccc(CNC(=O)c4ccno4)cc3)c2=O)CC1` [1-153], on hα2A receptor, the “h-α2A pIC50” value was 6.9. The “h-5HTT pIC50” value on 5HT-Transporter amounted to 6.1. Also, the “h-α2C pIC50” value at hα2C receptor was found to be 8.9.
`C/C(=C\c1ccccc1)CN1CCC(Nc2nccn(CCCN(C)C(=O)c3ccccc3)c2=O)CC1` [1-74]: the IC50 on hα2A receptor was 251 nM; on 5HT-Transporter, 3160 nM; on hα2C receptor it was 10 nM.
The matching figures for `C/C(=C\c1ccccc1)CN1CCN(c2nccn(CC(=O)c3ccccc3)c2=O)CC1` [12-5]: 316 nM, 3980 nM and 50.1 nM.
The matching figures for `C/C(=C\c1ccccc1)CN1CCC(Nc2nccn(-c3ccc(NCc4ccccc4)cc3)c2=O)CC1` [1-50]: 100 nM, 631 nM and 3.16 nM.
On the same counts, the results for `COc1cccc(Cn2ccnc(NC3CCN(C/C(C)=C/c4ccccc4)CC3)c2=O)c1` [3-10] are 79.4 nM, 794 nM and 31.6 nM.
In the case of `O=c1c(NC2CCN(C/C=C/c3ccccc3)CC2)nccn1Cc1ccccc1Br` [16-15], the IC50 at hα2A receptor was 631 nM; at 5HT-Transporter, 794 nM; at hα2C receptor, 158 nM.
The matching figures for `C/C(=C\c1ccccc1)CN1CCC(Nc2nccn(-c3ccc(Nc4ccc(F)cc4)cc3)c2=O)CC1` [1-44]: 100 nM, 794 nM and 5.01 nM.
The matching figures for `C/C(=C\c1ccccc1)CN1CCC(Nc2nccn(CC(=O)N(CCN(C)C)Cc3ccc(F)cc3)c2=O)CC1` [1-113]: 126 nM, 7940 nM and 3.98 nM.
The matching figures for `CN(C)CCn1ccnc(NC2CCN(C/C=C/c3ccccc3)CC2)c1=O` [16-1]: 1580 nM, more than 10000 nM and 158 nM.
Turning to `C/C(=C\c1ccccc1)CN1CCN(c2nccn(Cc3csc(C)n3)c2=O)CC1` [13-3], the IC50 on hα2A receptor is 316 nM; at 5HT-Transporter, 6310 nM; at hα2C receptor it was 79.4 nM.
On the same counts, the results for `C/C(=C\c1ccccc1)CN1CCC(Nc2nccn(-c3cccc(N4CCCCC4)c3)c2=O)CC1` [2-6] are 3.98 nM, 316 nM and 2.51 nM.
Consider `C/C(=C\c1ccccc1)CN1CCC(Nc2nccn(CCCN(C)S(=O)(=O)c3ccccc3)c2=O)CC1` [1-160], for which the values for the IC50 on hα2A receptor, at 5HT-Transporter and on hα2C receptor were 158 nM, 501 nM and 12.6 nM, respectively.
On the same counts, the results for `C/C(=C\c1ccccc1)CN1CCC(Nc2nccn(CCCN(Cc3ccccc3)Cc3ccccc3)c2=O)CC1` [1-71] are 100 nM, 398 nM and 5.01 nM.
The matching figures for `C/C(=C\c1ccccc1)CN1CCC(Nc2nccn(CCCN(Cc3ccccc3)C(=O)Nc3ccccc3)c2=O)CC1` [1-123]: 158 nM, 631 nM and 12.6 nM.
For the compound `C/C(=C\c1ccccc1)CN1CCC(Nc2nccn(CC(=O)O)c2=O)CC1` [3-1], the “h-α2A pIC50” value on hα2A receptor is listed as 6.6. In addition, on 5HT-Transporter, the “h-5HTT pIC50” value is on record as less than 5. Moreover, the “h-α2C pIC50” value on hα2C receptor worked out at 7.4.
As for `C/C(=C\c1ccccc1)CN1CCC(Nc2nccn(Cc3ccc(CNS(=O)(=O)c4c(C)noc4C)cc3)c2=O)CC1` [1-171], the IC50 on hα2A receptor was 158 nM; on 5HT-Transporter it was 794 nM; on hα2C receptor, 20 nM.
The matching figures for `C/C(=C\c1ccccc1)CN1CCC(Nc2nccn(CC(=O)N(C)c3ccccc3)c2=O)CC1` [1-41]: 100 nM, 398 nM and 3.16 nM.
On the same counts, the results for `C/C(=C\c1ccccc1)CN1CCC(Nc2nccn(CC(=O)NCc3ccco3)c2=O)CC1` [1-147] are 50.1 nM, 3160 nM and 3.16 nM.
On the same counts, the results for `CCCNC(=O)c1ccc(-n2ccnc(NC3CCN(C/C(C)=C/c4ccccc4)CC3)c2=O)cc1` [1-13] are 79.4 nM, 398 nM and 7.94 nM.
Take `C/C(=C\c1ccccc1)CN1CCN(c2nccn(CCOc3ccccc3)c2=O)CC1` [10-2]: the IC50 was 251 nM on hα2A receptor, 1260 nM on 5HT-Transporter and 100 nM at hα2C receptor.
On the same counts, the results for `C/C(=C\c1ccccc1)CN1CCC(Nc2nccn(-c3ccc(F)cc3)c2=O)CC1` [5-2] are 31.6 nM, 398 nM and 10 nM.
On the same counts, the results for `C/C(=C\c1ccccc1)CN1CCC(Nc2nccn(CC(=O)c3cccc(-c4ccccc4)c3)c2=O)CC1` [5-33] are 79.4 nM, 1260 nM and 100 nM.
Consider `C/C(=C\c1ccccc1)CN1CCC(Nc2nccn(Cc3cccc(NCCN(C)C)c3)c2=O)CC1` [1-103], for which the IC50 at hα2A receptor is 25.1 nM; at 5HT-Transporter it was 200 nM; on hα2C receptor, 3.16 nM.
In the case of `C/C(=C\c1ccccc1)CN1CCC(Nc2nccn(-c3cccc(CNCCN(C)C)c3)c2=O)CC1` [1-106], the “h-α2A pIC50” value at hα2A receptor is 7.9. At 5HT-Transporter, the “h-5HTT pIC50” value amounted to 6.1. Moreover, the “h-α2C pIC50” value on hα2C receptor amounted to 8.8.
For the compound `COC(=O)Cn1ccnc(NC2CCN(C/C=C/c3ccccc3)CC2)c1=O` [16-10], the IC50 was 1000 nM on hα2A receptor, more than 10000 nM at 5HT-Transporter and 200 nM on hα2C receptor.
Consider `C/C(=C\c1ccccc1)CN1CCC(Nc2nccn(CCCCN3C(=O)c4ccccc4C3=O)c2=O)CC1` [2-51], for which the IC50 on hα2A receptor is 100 nM; on 5HT-Transporter, 158 nM; on hα2C receptor it was 3.98 nM.
The matching figures for `C/C(=C\c1ccccc1)CN1CCC(Nc2nccn(Cc3ccc(CN)cc3)c2=O)CC1` [1-7]: 15.8 nM, 794 nM and 3.16 nM.
